Measurements reported in patent US11427548B2 (Arvinas Operations, Inc., priority 2015, dated 2022).
Like-named read-outs stand apart in the source and are kept apart here.

Target: T1, Androgen Receptor (Homo sapiens, UniProt P10275)
T1 construct: endogenous in cells; host or cells: VCaP cells
T1 sequence (P10275 1-920): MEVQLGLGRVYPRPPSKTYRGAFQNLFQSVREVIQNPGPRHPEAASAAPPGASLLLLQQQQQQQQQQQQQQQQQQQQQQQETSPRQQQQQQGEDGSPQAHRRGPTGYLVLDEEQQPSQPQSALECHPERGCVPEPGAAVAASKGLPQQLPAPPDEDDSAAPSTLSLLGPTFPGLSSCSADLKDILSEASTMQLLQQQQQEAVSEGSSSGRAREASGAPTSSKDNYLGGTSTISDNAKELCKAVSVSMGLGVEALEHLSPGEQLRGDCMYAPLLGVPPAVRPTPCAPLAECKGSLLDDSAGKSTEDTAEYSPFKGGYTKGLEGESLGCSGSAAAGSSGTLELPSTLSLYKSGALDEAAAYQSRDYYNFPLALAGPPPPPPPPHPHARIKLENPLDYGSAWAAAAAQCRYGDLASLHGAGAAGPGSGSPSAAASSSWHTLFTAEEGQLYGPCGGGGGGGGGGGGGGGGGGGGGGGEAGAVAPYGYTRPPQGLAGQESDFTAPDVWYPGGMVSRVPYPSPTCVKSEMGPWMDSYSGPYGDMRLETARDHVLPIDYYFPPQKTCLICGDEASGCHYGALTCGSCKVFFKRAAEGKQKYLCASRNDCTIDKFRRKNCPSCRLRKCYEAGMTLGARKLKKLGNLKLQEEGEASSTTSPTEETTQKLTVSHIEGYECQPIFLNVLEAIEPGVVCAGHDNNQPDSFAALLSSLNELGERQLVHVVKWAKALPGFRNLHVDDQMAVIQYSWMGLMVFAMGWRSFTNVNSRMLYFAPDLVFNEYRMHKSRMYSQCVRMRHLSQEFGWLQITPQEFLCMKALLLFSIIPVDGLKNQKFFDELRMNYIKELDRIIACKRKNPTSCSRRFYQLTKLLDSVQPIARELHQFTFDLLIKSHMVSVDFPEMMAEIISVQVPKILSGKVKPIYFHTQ
Test: Androgen Receptor ELISA assay (PathScan AR ELISA) in VCaP cells: AR degradation, Dmax and DC50
Type: cell-based
Procedure, shortened: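 VCaP cells in phenol red-free RPMI with 5% charcoal-stripped FBS were grown at least 3 days, then given compound as 7 half-log doses in 0.1% DMSO with 0.1 nM R1881 for 24 h. Lysates went into a sandwich AR ELISA with TMB read at 450 nm.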

[1] = VCaP cells; Table 36; read-out: VCaP DC50
[2] = VCaP, read-out: VCaP Dmax (%), VCaP cells; Table 36
[3] = read-out: VCaP DC50; concentration that caused 50% Androgen Receptor degradation, VCaP cells
[4] = VCaP, VCaP cells; Table 36; read-out: VCaP Dmax (%)
[5] = VCaP cells; Table 35; read-out: VCaP DC50
[6] = VCaP, VCaP cells; Table 35; read-out: VCaP Dmax (%)

CC(NC(=O)C1CC(O)CN1C(=O)C(NC(=O)COCCN1CC2CC1CN2c1ccc(C(=O)NC2C(C)(C)C(Oc3ccc(C#N)c(Cl)c3)C2(C)C)cn1)C(C)(C)C)c1ccc(-c2scnc2CO)cc1 [Example 668, N-((1r,3R)-3-(3-chloro-4-cyanophenoxy)-2,2,4,4-tetramethylcyclobutyl)-6-((1R,4R)-5-(2-(2-(((S)-1-((2S,4R)-4-hydroxy-2-(((S)-1-(4-(4-(hydroxymethyl)thiazol-5-yl)phenyl)ethyl)carbam-oyl)pyrrolidin-1-yl)-3,3-dimethyl-1-oxobutan-2-yl)amino)-2-oxoethoxy)ethyl)-2,5-diazabicyclo[2.2.1]hept-an-2-yl)nicotinamide]
DC50 [1]: 51 to 500 nM | Dmax [2]: 26 to 50%

Cc1ncsc1-c1ccc(CNC(=O)[C@@H]2C[C@@H](O)CN2C(=O)[C@@H](NC(=O)COCCCOCCCCOc2ccc(N3C(=S)N(c4ccc(C#N)c(C(F)(F)F)c4)C(=O)C34CCN(C)CC4)cc2)C(C)(C)C)cc1 [Example 51, (2S,4R)-1-[(2S)-2-(2-{3-[4-(4-{3-[4-cyano-3-(trifluoromethyl)phenyl]-8-methyl-4-oxo-2-sulfanylidene-1,3,8-triazaspiro[4.5]decan-1-yl}phenoxy)butoxy]propoxy}acetamido)-3,3-dimethylbutanoyl]-4-hydroxy-N-{[4-(4-methyl-1,3-thiazol-5-yl)phenyl]methyl}pyrrolidine-2-carboxamide]
Dmax (VCaP, read-out: VCaP Dmax (%)): 26 to 50% | DC50 [3]: < 50 nM

CC(C)C[C@H](OCCN1CCN(c2ccc(C(=O)N[C@H]3C(C)(C)[C@H](Oc4ccc(C#N)c(Cl)c4)C3(C)C)cn2)CC1)C(=O)N[C@H](C(=O)N1C[C@H](O)C[C@H]1C(=O)NCc1ccc(Cl)cc1)C(C)(C)C [Example 727, N-((1r,3r)-3-(3-chloro-4-cyanophenoxy)-2,2,4,4-tetramethylcyclobutyl)-6-(4-(2-(((S)-1-(((S)-1-((2S,4R)-2-((4-chlorobenzyl)carbamoyl)-4-hydroxypyrrolidin-1-yl)-3,3-dimethyl-1-oxobutan-2-yl)amino)-4-methyl-1-oxopentan-2-yl)oxy)ethyl)piperazin-1-yl)nicotinamide]
DC50 [1]: > 501 nM | Dmax [4]: < 25%

CC(C)(C)[C@H](NC(=O)COCCCCCNc1ccc(C(=O)N[C@H]2C(C)(C)[C@H](Oc3ccc(C#N)c(Cl)c3)C2(C)C)cc1)C(=O)N1C[C@H](O)C[C@H]1C(=O)NCc1ccc(-c2ncns2)cc1 [Example 504]
DC50 [5]: < 50 nM | Dmax [6]: 51 to 70%

CC(C)(C)[C@H](NC(=O)COCCCOCCCCOc1ccc(N2C(=S)N(c3ccc(C#N)c(Cl)c3)C(=O)C2(C)C)cc1F)C(=O)N1C[C@H](O)C[C@H]1C(=O)NCc1ccc(-c2cncs2)cc1 [Example 46, (2S,4R)-1-[(2S)-2-{2-[3-(4-{4-[3-(3-chloro-4-cyanophenyl)-5,5-dimethyl-4-oxo-2-sulfanylideneimidazolidin-1-yl]-2-fluorophenoxy}butoxy)propoxy]acetamido}-3,3-dimethylbutanoyl]-4-hydroxy-N-{[4-(1,3-thiazol-5-yl)phenyl]methyl}pyrrolidine-2-carboxamide]
Dmax (VCaP, read-out: VCaP Dmax (%)): > 71% | DC50 [3]: < 50 nM

Cc1ncsc1-c1ccc([C@H](C)NC(=O)[C@@H]2C[C@@H](O)CN2C(=O)[C@@H](NC(=O)COCCN2C[C@H]3C[C@@H]2CN3c2ccc(C(=O)N[C@H]3C(C)(C)[C@H](Oc4ccc(C#N)c(Cl)c4)C3(C)C)cn2)C(C)(C)C)cc1 [Example 636, N-((1r,3R)-3-(3-chloro-4-cyanophenoxy)-2,2,4,4-tetramethylcyclobutyl)-6-((1R,4R)-5-(2-(2-(((S)-1-((2S,4R)-4-hydroxy-2-(((S)-1-(4-(4-methylthiazol-5-yl)phenyl)ethyl)carbam-oyl)pyrrolidin-1-yl)-3,3-dimethyl-1-oxobutan-2-yl)amino)-2-oxoethoxy)ethyl)-2,5-diazabicyclo[2.2.1]hept-an-2-yl)nicotinamide]
Dmax (VCaP, read-out: VCaP Dmax (%)): > 71% | DC50 (read-out: VCaP DC50; VCaP cells; Table 36): < 50 nM

Cc1ncsc1-c1ccc([C@H](C)NC(=O)[C@@H]2C[C@@H](O)CN2C(=O)[C@@H](NC(=O)COCCN2CCN(c3ccc(C(=O)N[C@H]4C[C@H](Oc5ccc(C#N)c(Cl)c5)C4)cn3)CC2)C(C)(C)C)cc1 [Example 765, N-((1r,3r)-3-(3-chloro-4-cyanophenoxy)cyclobutyl)-6-(4-(2-(2-(((S)-1-((2S,4R)-4-hydroxy-2-(((S)-1-(4-(4-methylthiazol-5-yl)phenyl)ethyl)carbam-oyl)pyrrolidin-1-yl)-3,3-dimethyl-1-oxobutan-2-yl)amino)-2-oxoethoxy)ethyl)pipera-zin-1-yl)nicotinamide]
DC50 [1]: > 501 nM | Dmax [4]: < 25%

Cc1ncsc1-c1ccc(CNC(=O)[C@@H]2C[C@@H](O)CN2C(=O)[C@@H](NC(=O)COCCCCOc2ccc(-c3ccc(N4C(=S)N(c5cnc(C#N)c(C(F)(F)F)c5)C(=O)C4(C)C)cc3)cc2)C(C)(C)C)cc1 [Example 193, (2S,4R)-1-[(2S)-2-(2-{4-[4-(4-{3-[6-cyano-5-(trifluoromethyl)pyridin-3-yl]-5,5-dimethyl-4-oxo-2-sulfanylideneimidazolidin-1-yl}phenyl)phenoxy]butoxy}acetamido)-3,3-dimethylbutanoyl]-4-hydroxy-N-{[4-(4-methyl-1,3-thiazol-5-yl)phenyl]methyl}pyrrolidine-2-carboxamide]
DC50 (VCaP cells; concentration that caused 50% Androgen Receptor degradation; read-out: VCaP DC50): < 50 nM | Dmax (VCaP, VCaP cells; highest percentage of Androgen Receptor degradation; read-out: VCaP Dmax (%)): > 71%

Cc1ncsc1-c1ccc([C@H](C)NC(=O)[C@@H]2C[C@@H](O)CN2C(=O)[C@@H](NC(=O)COCCc2cn(-c3ccc(C(=O)N[C@H]4C(C)(C)[C@H](Oc5ccc(C#N)c(C(F)(F)F)c5)C4(C)C)cc3)nn2)C(C)(C)C)cc1 [Example 719, (2S,4R)-1-((S)-2-(2-(2-(1-(4-(((1r,3r)-3-(4-cyano-3-(trifluoromethyl)phenoxy)-2,2,4,4-tetramethylcyclobutyl)carbamoyl)phenyl)-1H-1,2,3-triazol-4-yl)ethoxy)acetamido)-3,3-dimethylbutanoyl)-4-hydroxy-N-((S)-1-(4-(4-methylthiazol-5-yl)phenyl)ethyl)pyrrolidine-2-carboxamide]
DC50 [1]: < 50 nM | Dmax [2]: > 71%

Cc1ncsc1-c1ccc([C@H](C)NC(=O)[C@@H]2C[C@@H](O)CN2C(=O)[C@@H](NC(=O)COCC2CCN(c3ccc(C(=O)N[C@H]4C(C)(C)[C@H](Oc5ccc(C#N)c(Cl)c5)C4(C)C)cc3)CC2)C(C)(C)C)cc1 [Example 447]
DC50 [5]: < 50 nM | Dmax [6]: > 71%

Cc1ncsc1-c1ccc([C@H](C)NC(=O)[C@@H]2C[C@@H](O)CN2C(=O)[C@@H](NC(=O)CN2CCN(CCCc3ccc(C(=O)N[C@H]4C(C)(C)[C@H](Oc5ccc(C#N)c(Cl)c5)C4(C)C)cc3)CC2)C2COC2)cc1 [Example 751, (2S,4R)-1-((S)-2-(2-(4-(3-(4-(((1r,3r)-3-(3-chloro-4-cyanophenoxy)-2,2,4,4-tetramethylcyclobutyl)carbamoyl)phenyl)propyl)piperazin-1-yl)acetamido)-2-(oxetan-3-yl)acetyl)-4-hydroxy-N-((S)-1-(4-(4-methylthiazol-5-yl)phenyl)ethyl)pyrrolidine-2-carboxamide]
DC50 [1]: > 501 nM | Dmax [4]: < 25%

COc1cc(-c2ccc(N3C(=S)N(c4ccc(C#N)c(C(F)(F)F)c4)C(=O)C3(C)C)cc2)ccc1OCCCCOCC(=O)N[C@H](C(=O)N1C[C@H](O)C[C@H]1C(=O)NCc1ccc(-c2scnc2C)cc1)C(C)(C)C [Example 139, (2S,4R)-1-[(2S)-2-(2-{4-[4-(4-{3-[4-cyano-3-(trifluoromethyl)phenyl]-5,5-dimethyl-4-oxo-2-sulfanylideneimidazolidin-1-yl}phenyl)-2-methoxyphenoxy]butoxy}acetamido)-3,3-dimethylbutanoyl]-4-hydroxy-N-{[4-(4-methyl-1,3-thiazol-5-yl)phenyl]methyl}pyrrolidine-2-carboxamide]
Dmax (VCaP, read-out: VCaP Dmax (%)): > 71% | DC50 (read-out: VCaP DC50; concentration that caused 50% Androgen Receptor degradation, VCaP cells (Table 32)): < 50 nM

Cc1ncsc1-c1ccc(CNC(=O)[C@@H]2C[C@@H](O)CN2C(=O)[C@@H](NC(=O)COCCN2CCC(c3ccc(C(=O)N[C@H]4C(C)(C)[C@H](Oc5ccc(C#N)c(Cl)c5)C4(C)C)cc3)CC2)C(C)(C)C)cc1 [Example 525]
DC50 [5]: > 501 nM | Dmax [6]: 51 to 70%
